Key:
[1] = Example 14: pritelivir SC PK study in dog (solution, micro-suspension, nano-suspension); type: in vivo, male non-naïve Beagle dogs; conditions: 10 mg/kg
Experimental: The LC-MS methodology and conditions used to analyse pritelivir in dog plasma samples from the PK study described in Example 14 are provided in Table 2.
A solution of pritelivir in 90% NMP (Sigma) and 10% Solutol HS15 (BASF) at a concentration of 100 mg/mL was prepared as follows: • 1) Around 460 mg of crystalline pritelivir free base sesquihydrate (based on assay) was weighed and added to ~3.9 mL of NMP. The mixture was stirred for 10 mins. • 2) After the pritelivir had dissolved, Solutol HS15 (−0.4 mL) was added to the solution and mixed for another 2 mins. • 3) The final dosing formulation was a clear solution.
An aqueous micro-suspension of crystalline pritelivir free base (sesquihydrate) in a 2 mg/mL polysorbate 80 (Tween 80) and 5 mg/mL Methocel A4M vehicle at a concentration of 100 mg/mL was prepared as follows: • 1) Crystalline pritelivir free base (sesquihydrate) was jet milled [grinding pressure […]] to obtain microparticles (Dv90<10 um). • 2) Around 460 mg of jet milled material (based on assay) were then dispersed in a 2 mg/mL polysorbate 80 (Tween 80) and 5 mg/ml Methocel A4M solution (−4.4 mL) to obtain a 100 mg/ml suspension. • 3) The mixture was stirred for 10 minutes. • 4) The final dosing formulation was a homogenous white cloudy suspension.
An aqueous nano-suspension of crystalline pritelivir free base (sesquihydrate) in a 10 mg/mL NaCMC, 2 mg/mL polysorbate 80 (Tween 80) and 50 mg/mL mannitol vehicle at a concentration of 100 mg/mL was prepared as follows: • 1) 10 mg/mL crystalline pritelivir free base (sesquihydrate) was dispersed into a solution of 1 mg/mL NaCMC+0.2 mg/mL polysorbate 80 (Tween 80) and 5 mg/mL mannitol. • 2) The suspension was subjected to high pressure homogenizer (around 20 cycles at 600 bar followed with 130 cycles at 900 bar) until particle size was around 1 μm. • 3) After particle size reduction, the suspension was subjected to freeze drying to obtain a freeze-dried powder. • 4) The freeze-dried powder was reconstituted with water to obtain a 100 mg/ml suspension. • 5) The suspension was wet milled (10:1 0.1 mm zirconium oxide milling beads: pritelivir) at 700 rpm for 500 minutes to reduce particle size to nanosized particles (Dv90<500 nm). • 6) This nanosuspension was subjected to freeze drying to obtain a freeze-dried powder. • 7) Appropriate amounts of freeze-dried powder (based on assay) were weighed and added to water to obtain a 100 mg/ml suspension. • 8) The mixture was stirred for 10 minutes. • 9) The final dosing formulation was a homogenous white cloudy suspension.
Male non-naïve beagles were used for the dog PK study. […]
At each time point, approximately 0.5 mL of whole blood was collected into K2EDTA tubes. […] Plasma samples were stored at approximately −70° C. until analyzed by LC-MS.

[2] = Injection site observation in pritelivir PK studies (Examples 1-4); type: in vivo, rat, monkey, dog; conditions: SC pritelivir depot formulations, Examples 1-4, 3 species
Experimental: Male Sprague Dawley (SD) rats with ~300 g body weight (ages 6-8 weeks) were used for the pharmacokinetic study. The animals had free access to food and water. The pritelivir suspensions described above were administered via sub-cutaneous injection to each animal group (n=3) with a dosing volume of 3.33 mL/kg to achieve 33.33 mg/kg and 166.67 mg/kg doses.
Male SD rats with 230-250 g body weight, ages 6-8 weeks were used for the rat PK study. The animals had free access to food and water. The prepared suspension was administered via subcutaneous injection to each animal group (n=3) with a dosing volume of 3.33 mL/kg to achieve a 10 mg/kg dose.
Male non-naïve Cyno Monkeys with −5 kg body weight was used for the monkey PK study. The animals had free access to food and water. The prepared suspension was administered via subcutaneous injection to each animal group (n=3) with a dosing volume of 3.33 mL/kg to achieve a 10 mg/kg dose.
Male non-naïve beagles were used for the dog PK study. The animals had free access to food and water. The prepared suspension was administered via subcutaneous injection to each animal group (n=3) with a dosing volume of 2 mL/kg to achieve a 10 mg/kg dose.

[3] = Plasma protein binding; type: in vitro ADME; conditions: read-out: free fraction of the total plasma concentration
[4] = Example 11: Compound 1 (Form A) aqueous suspension SC PK study in monkey; type: in vivo, male cynomolgus monkeys; conditions: 10 mg/kg, following an initial drug burst
Experimental: An aqueous suspension of Compound 1 free form (Form A) in a 0.9% NaCl+0.5% polysorbate 80 vehicle at a concentration of 3.0 mg/mL was prepared as follows: • 1) Vehicle (0.9% w/w NaCl and 0.5% w/w polysorbate 80) was prepared by dissolving NaCl and polysorbate 80 in water. • 2) Appropriate amount of Compound 1 was weighed and added to the vehicle. • 3) The mixture was stirred for 15 minutes, then vortexed for 1 minute and then sonicated for 10 minutes. • 4) The final dosing formulation was a homogenous white cloudy suspension.
Male non-naïve Cyno Monkeys with ~4-6 kg body weight were used for the monkey PK study. The animals had free access to food and water. The prepared suspension was administered via subcutaneous injection to each animal group (n=3) with a dosing volume of 3.33 mL/kg to achieve a 10 mg/kg dose.
At each time point, approximately 0.5 mL whole blood was collected via the cephalic and saphenous vein into K2EDTA tubes. Blood samples were put on to ice and centrifuged at 2000 g for 5 min to obtain plasma sample within 15 minutes. Plasma samples were stored at approximately −70° C. until analyzed by LC-MS.

SMILES | plasma exposure after SC administration ([1]; 0.1 mL/kg, all three formulations (solution, microsuspension, nanosuspension; 100 mg/mL)) | plasma concentrations, microsuspension compared with nanosuspension ([1]; early time points (up to 234 hr)) | plasma concentration levels of the solution formulation compared with the suspensions ([1]; solution in 90% NMP/10% Solutol HS15, early time points) | adverse reactions at the injection sites ([1]; three formulations) | adverse reactions at the injection sites [2] | fraction unbound [3] | prolonged exposure out to [4]
Cc1nc(N(C)C(=O)Cc2ccc(-c3ccccn3)cc2)sc1S(N)(=O)=O [pritelivir, N-methyl-N-(4-methyl-5-sulfamoyl-1,3-thiazol-2-yl)-2-[4-(pyridin-2-yl)phenyl]acetamide] | Prolonged exposure was achieved | higher plasma concentrations of pritelivir were obtained from the microsuspension | highest plasma concentration levels at the early time points | no adverse reactions were observed | no adverse reactions observed | 0.02 to 0.03 | –
Cc1nc(N2CCCN(c3ccc(-c4cc(F)ccc4F)cc3)C2=O)sc1S(N)(=O)=O [Compound 1, 2-(3-(2′,5′-difluoro-[1,1′-biphenyl]-4-yl)-2-oxotetrahydropyrimidin-1(2H)-yl)-4-methylthiazole-5-sulfonamide] | – | – | – | – | – | – | at least 220 days
